Reference: PubChem BioAssay AID788 (SRMLSC, 2007)
pIC50: −log10 of the molar value. The source made the active and inactive calls. No rule for the calls is given here.

Columns and labels:
[1] = growth inhibition of vps1Δ apl2Δ yeast, dose response, post-Golgi transport modulator project, S. cerevisiae, background strain comparison (AID 788); details: S. cerevisiae vps1Δ apl2Δ growth inhibition, dose response; at 25 µM (top of the series)
[2] = system: S. cerevisiae vps1Δ apl2Δ growth inhibition, dose response; experiment: as above
[3] = system: S. cerevisiae wild-type background strain growth inhibition; experiment: as above; details: S. cerevisiae vps1Δ apl2Δ growth inhibition, dose response; measured here: wild-type background strain growth

Row | Structure (SMILES) | growth inhibition [1] | IC50 [2] | pIC50 [3] | pIC50 [2]
1 | O=C(Nc1nnc(-c2cccs2)o1)c1cccc(C(F)(F)F)c1 | 36.6% (inactive) |  |  | 
2 | Cc1cc(C)n2nc(C(=O)NCc3ccccc3)cc2n1 |  | > 10 µM (inactive) | < 5.00 | 
3 | O=C(NCc1ccccc1)NS(=O)(=O)c1ccccc1Cl |  | > 10 µM (inactive) | < 5.00 | 
4 | Cc1nn(-c2ccccn2)c(C)c1Oc1ccccc1O |  | > 10 µM (inactive) | < 5.00 | 
5 | COc1cccc(NC(=O)C2CCCN2C(=O)OCc2ccccc2)c1 (stereo not drawn) |  | > 10 µM (inactive) | < 5.00 | 
6 | CCCC(=O)N1CCN(c2ccc(NC(=O)c3cc4ccccc4o3)cc2Cl)CC1 |  | 20.8 µM (inactive) | 4.72 | 
7 | CCN(CC)CCn1nc(C)nc1-c1ccccc1O |  | > 10 µM (inactive) | < 5.00 | 
8 | Cn1c(=O)c2nc(NCc3ccccc3)cnc2n(C)c1=O |  | > 10 µM (inactive) | < 5.00 | 
9 | CCOC(=O)C(NC(C)=O)(Nc1ccc(S(=O)(=O)Nc2onc(C)c2C)cc1)C(F)(F)F (stereo not drawn) |  | > 10 µM (inactive) | < 5.00 | 
10 | CSc1ncccc1C(=O)OCC(=O)N1CCOCC1 |  | > 10 µM (inactive) | < 5.00 | 
11 | CCC(=O)c1ccc(N2CCN(C(=O)c3ccc(Br)cc3)CC2)c(F)c1 |  |  | < 5.00 | 4.60
12 | O=C(c1ccco1)N1CCN=C1SCc1cccnc1 |  | > 10 µM (inactive) | < 5.00 | 
13 | Clc1ccc(-c2n[nH]c3c2CCC3)c(Cl)c1 |  | 1.04 µM (inactive) | 6.29 | 
14 | CCN(CC)c1nc2cc(OC)ccc2cc1C#N |  | > 10 µM (inactive) | < 5.00 | 
15 | Cc1cccc(CS(=O)(=O)Cc2ccc(C(=O)NCCCN3CCCC3)o2)c1 |  | > 10 µM (inactive) | < 5.00 | 
16 | O=C(NCc1ccc2c(c1)OCO2)c1ccc(-n2cnnn2)cc1 |  | > 10 µM (inactive) | < 5.00 | 
17 | CC1CCCN(CCOCCOc2ccc(Cl)cc2Br)C1 (stereo not drawn) |  |  | < 5.00 | 5.60
18 | CS(=O)(=O)N1CCC(C(=O)NCCN2CCN(Cc3ccccc3)CC2)CC1 |  | > 10 µM (inactive) | < 5.00 | 
19 | Cc1ccc(CSc2nc3ccccc3cc2C=O)cc1 |  | 2.37 µM (inactive) | 5.68 | 
20 | Fc1ccc(-c2noc(C3CCN(Cc4cccnc4)CC3)n2)cc1 |  |  | < 5.00 | 5.22
21 | CCOc1cccc(C(=O)Nc2cccnc2)c1 |  | > 10 µM (inactive) | < 5.00 | 
22 | Cc1ccc2cc(CN(CCO)Cc3nnnn3Cc3ccc(F)cc3)c(=O)[nH]c2c1 |  | > 10 µM (inactive) | < 5.00 | 
23 | Cc1ccc(S(=O)(=O)N2CCN(C3CCN(Cc4ccccc4)CC3)CC2)cc1 |  |  | < 5.00 | 4.61
24 | Cc1ccnc(N2C(=O)c3cccc4c([N+](=O)[O-])ccc(c34)C2=O)c1 |  | 5.37 µM (inactive) | 5.37 | 

Row | Structure (SMILES) | growth inhibition [1] | IC50 [2] | pIC50 [3] | pIC50 [2]
25 | CCCn1c(SCc2cc(=O)oc3ccc4ccccc4c23)n[nH]c1=O |  | > 10 µM (inactive) | < 5.00 | 
26 | CC(=O)Nc1ccccc1NS(=O)(=O)c1ccc(Cl)cc1 |  | > 10 µM (inactive) | < 5.00 | 
27 | O=c1cccc2n1CC1CC2CN(S(=O)(=O)c2ccccc2)C1 (stereo not drawn) |  | > 10 µM (inactive) | < 5.00 | 
28 | CC(C)Oc1ccc(/C(O)=C2/C(=O)C(=O)N(CCN(C)C)C2c2ccco2)cc1 (stereo not drawn) |  | > 10 µM (inactive) | < 5.00 | 
29 | O=[N+]([O-])c1cc(C(F)(F)F)ccc1N/N=C/c1cc2ccccc2nc1Cl |  | > 10 µM (inactive) | < 5.00 | 
30 | Cc1ccc(CN2CCN(/N=C/c3cc(Br)ccc3O)CC2)cc1 |  |  | < 5.00 | 5.36
31 | Clc1cc(Br)ccc1OCCOCCN1CCOCC1 |  |  | < 5.00 | 4.69
32 | COC(=O)C1=CN(CCCN2CCCC2=O)C=C(C(=O)OC)C1c1ccccc1C(F)(F)F |  | > 10 µM (inactive) | < 5.00 | 
33 | O=C1CC(N2CCN(c3ccc(Cl)c(Cl)c3)CC2)C(=O)N1 (stereo not drawn) |  | > 10 µM (inactive) | < 5.00 | 
34 | CCCCOc1ccc(-c2ncc(C(=O)O)c(C)n2)cc1 |  | > 10 µM (inactive) | < 5.00 | 
35 | O=C(OCn1ncc(Cl)c(Cl)c1=O)c1ccc(C(F)(F)F)cc1 |  |  | < 5.00 | 4.63
36 | COC(=O)c1ccc(NC(=O)c2cn(-c3ccccc3)nc2-c2ccncc2)cc1 |  | > 10 µM (inactive) | < 5.00 | 
37 | Cc1ccc(NS(=O)(=O)c2cc(C(=O)N3CCOCC3)ccc2C)cc1 |  | > 10 µM (inactive) | < 5.00 | 
38 | Cc1ccc(S(=O)(=O)c2c(C)nn(C(C)(C)C)c2OC(=O)c2ccc(Br)o2)cc1 |  | > 10 µM (inactive) | < 5.00 | 
39 | Cc1cc(OCC(F)(F)C(F)(F)C(F)(F)C(F)(F)C(F)(F)C(F)F)nc(N)n1 |  | > 10 µM (inactive) | < 5.00 | 
40 | O=C(COc1ccc(Cl)cc1Cl)N1CCN(C/C=C/c2ccccc2)CC1 |  |  | 5.15 | 5.84
41 | c1ccc(-c2ccc(-c3cnc4n3CCCCC4)cc2)cc1 |  | > 10 µM (inactive) | < 5.00 | 
42 | O=C(C1CCN(S(=O)(=O)c2cccs2)CC1)N1CCCCCC1 |  | > 10 µM (inactive) | < 5.00 | 
43 | CCn1c(-c2c[nH]c3ccccc23)n[nH]c1=S |  | > 10 µM (inactive) | < 5.00 | 
44 | O=C(NCC(c1cccnc1)N1CCN(c2ccccc2)CC1)C1CCCCC1 (stereo not drawn) |  | > 10 µM (inactive) | < 5.00 | 
45 | N#Cc1nc(COc2ccc(-c3ccccc3)cc2)oc1NCCCN1CCOCC1 |  |  | 4.81 | 4.86
46 | CCOC(=O)NC(Nc1ccc(S(N)(=O)=O)cc1)(C(=O)OCC)C(F)(F)F (stereo not drawn) |  | > 10 µM (inactive) | < 5.00 | 
47 | Cc1cc(Cl)cc(C)c1OCCCCN1CCOCC1 |  | > 10 µM (inactive) | < 5.00 | 
